From patent publication US5932555A (priority 1997, dated 1999)
In brackets after ≈: the same amount, converted by molar mass. Where two headings read alike, the source gives them in different places.

How the values were obtained:
P388 = assay: Mouse in vivo antitumor test, P388 transplanted
Description: 2×10^5 cells of P388 or P388/ADR were inoculated intraperitoneally into each of CDF1 mice (male, each weighing 20 g, 10 animals/group), and from the next day, the test solution was administered at 10, 5, and 1 mg/kg body weight/day respectively by intraperitoneal injection of 200 μl sample at each concentration once a day for 10 successive days. The numbers with time of mice which survived after administration was counted and the average survival days and T/C (survival days of treated mice/survival days of control mice) were calculated. The average body weights after 10 days were also measured.

Solubility = assay type: physicochemical
CDF1 mice = assay: Repeated administration toxicity test (intraperitoneal); assay type: in vivo, mouse (CDF1); conditions: for Body weight, Day 0: Day 0 (baseline)
Description: (§1) As the comparative control, test solutions of adriamycin were prepared in the same manner. […] The number with time of survived animals after administration and the average body weights on Days 0, 5, and 10 were determined.

[1] = as above; assay type: in vivo, mouse (CDF1); conditions: mouse, in vivo, ip, read-out: Fatality rate
Description: as §1

[2] = system: blastgenesis of lymphocytes; assay: Mouse allogenic mixed lymphocyte reaction (MLR), inhibition of blastgenesis ([3H]-thymidine incorporation); assay type: cell-based, mouse (C57BL/6 responder, BALB/C stimulator); conditions: 96 h
Description: The mouse allogenic mixed lymphocyte reaction for assay was carried out according to the method of Hatanaka et al. (Hatanaka et al., J. Antibiotics, 41, 1592-1601 (1988)). That is, spleen cells from C57BL/6 mouse (H-2^b) as responder cells were mixed with spleen cells from BALB/C mouse (H-2^d) treated with mitomycin C as stimulator cells, and then cultured.
Preparation of the responder cells was carried out in the following manner:
The spleen was removed from a 5- to 6-week-old C57BL/6 mouse, then homogenized in 20 ml ice-cold RPMI 1640 medium supplemented with 10% heat inactivated fetal calf serum (FCS), and filtered through a gauze to give a single cell suspension. The cells were recovered by centrifugation, suspended in 4 ml PRMI 1640 medium, followed by adding 6 ml solution (pH 7.2) containing 0.15 M ammonium chloride, 1 mM sodium hydrogen carbonate and 0.1 mM tetrasodium ethylenediaminetetraacetate, and the mixture was incubated at 0° C. for 1 minute to remove the contaminating erythrocytes. […]
90 μl of the responder cell suspension, 90 μl of the stimulator cell suspension and 20 μl of sample were added to a 96-well microplate and incubated at 37° C. in wet 5% CO2 /95% air for 96 hours. […] The radioactivity of a filter disk corresponding to each well was determined using liquid scintillation counter (beta-counter).

[3] = P388, 1 mg/kg/day i.p. × 10 days
[4] = P388, 5 mg/kg/day i.p. × 10 days
[5] = P388, 10 mg/kg/day i.p. × 10 days

Question: Which results are given for `COC(CC1C(C)=CCC2C1(C)CCC1C(C)(C)C(O)C(OC3OC(C)C(OC(=O)c4cccc(O)c4)C(OC4OC(CO)C(O)C(O)C4NC(C)=O)C3O)CC12C)C(N)C(=O)O` (stereo not drawn) [0406TP-1]?
Answer: T/C (P388; [3]): 123%; average body weight after 10 days (P388; [3]): 25.9 g; average survival days (P388; [3]): 12.7 days; T/C (P388; [4]): 123%; average body weight after 10 days (P388; [4]): 26.3 g; average survival days (P388; [4]): 12.7 days; T/C (P388; [5]): 128%; average body weight after 10 days (P388; [5]): 27.3 g; average survival days (P388; [5]): 13.2 days; therapeutic effect (improvement in survival rate) (P388; P388-transplanted mice, adriamycin 1 mg/kg/day vs 0406TP-1): same degree of therapeutic effect; Solubility (Solubility; acetone): Insoluble; Solubility (Solubility; chloroform): Insoluble; Solubility (Solubility; ethanol): Soluble; Solubility (Solubility; ether): Insoluble; Solubility (Solubility; ethyl acetate): Insoluble; Solubility (Solubility; methanol): Soluble; Solubility (Solubility; water): Soluble; Body weight, Day 0 (CDF1 mice; 1 mg/kg/day i.p. group): 22.0 g; Body weight, Day 5 (CDF1 mice; 1 mg/kg/day i.p.): 23.1 g; Body weight, Day 10 (CDF1 mice; 1 mg/kg/day i.p.): 25.0 g; Body weight, Day 0 (CDF1 mice; 5 mg/kg/day i.p. group): 21.8 g; Body weight, Day 5 (CDF1 mice; 5 mg/kg/day i.p.): 23.7 g; Body weight, Day 10 (CDF1 mice; 5 mg/kg/day i.p.): 25.5 g; Body weight, Day 0 (CDF1 mice; 10 mg/kg/day i.p. group): 21.4 g; Body weight, Day 5 (CDF1 mice; 10 mg/kg/day i.p.): 23.6 g; Body weight, Day 10 (CDF1 mice; 10 mg/kg/day i.p.): 25.4 g; mortality ([1]; 1 mg/kg/day i.p. × 10 days): 0%; mortality ([1]; 5 mg/kg/day i.p. × 10 days): 0%; mortality ([1]; 10 mg/kg/day i.p. × 10 days): 0%; IC50 [2]: 0.11 µg/mL (≈ 0.123 µM)
